≈ marks a conversion by molar mass, not a printed value.
Tests used:
[1] = plasma concentration over time after administration (Example 3, FIG. 3); type: in vivo, rat
Procedure: The EC50 value of 2-methoxyadenosine at the adenosine A2A receptor is 900 ng/ml (3 μM). […] It can be seen that the plasma concentration remains above 2% of the EC50 value for more than 3 hours. Anti-inflammatory effects have been observed (without blood pressure changes) when the peak and maintained plasma concentrations are as low […] (i.e. 2% of the EC50 value determined in vitro).

[2] = test system: carageenan-induced oedema in a rat paw; details: rats, 20 mg/kg po; cited from earlier work
[3] = test system: blood pressure and heart rate; experiment: radiotelemetry of blood pressure and heart rate (Example 2, FIG. 2); type: in vivo, rat; details: 0.6 mg/kg p.o., rats
Procedure: FIG. 2: An implantable radiotelemetry device was placed in the abdominal cavity of 6 rats per group. The pressure catheter of the device was inserted in the abdominal aorta and two electrodes tunnelised under the skin in a lead II position (left side of abdominal cavity/right shoulder). Individual rats were placed in their own cage on a radioreceptor (DSI) for data acquisition. The effect of 0.6 mg/kg 2-methoxyadenosine or vehicle (p.o.) on blood pressure was then assessed. A: blood pressure; B: heart rate.

[4] = test system: carrageenan (CGN) induced inflammation; experiment: carrageenan induced inflammation, paw volume by plethysomometry (Example 1, FIG. 1); type: in vivo
Procedure: Carrageenan (2%, 10 microlitres) was administered into the right hind paw, and the paw volume assessed by plethysomometry. 2-methoxyadenosine was administered at the same time as carrageenan. 2-methoxyadenosine was as effective as indomethacin (Indo, 3 mg/kg p.o.).

[5] = test system: mean blood pressure and heart rate; details: rats, 20 mg/kg po; cited from earlier work
adenosine A2A receptor = details: cited from earlier work

SMILES: COc1nc(N)c2ncn([C@@H]3O[C@H](CO)[C@@H](O)[C@H]3O)c2n1 [2-methoxyadenosine]
- time the plasma concentration remains above 2% of the EC50 value ([1]; 0.6 mg/kg to a rat): more than 3 hours
- peak and maintained plasma concentration at which anti-inflammatory effects were observed without blood pressure changes ([1]; as low as, stated as 2% of the EC50 value): 8 ng/mL
- effect on blood pressure when the peak plasma concentration reaches the EC50 value ([1]; peak plasma concentration 900 ng/ml, lasts for many hours): profound reductions in blood pressure
- inhibition of carageenan-induced inflammation [2]: 25%
- effect on blood pressure [3]: no significant effect
- effect on heart rate [3]: no significant effect
- effect on blood pressure ([4]; 62.4 and 624 μg/kg i.p.): without affecting blood pressure
- inhibition of carrageenan (CGN) induced inflammation (paw volume) ([4]; 62.4 and 624 μg/kg i.p., given at the same time as carrageenan, versus indomethacin 3 mg/kg po): comparable efficacy to indomethacin
- plasma concentration at which profound anti-inflammatory activity is seen ([4]; plasma concentration): ≤ 0.2 µM
- reduction in heart rate [5]: 25%
- reduction in mean blood pressure [5]: 41%
- EC50 (adenosine A2A receptor; Daly et al. 1993): 3 µM
- EC50 value at the adenosine A2A receptor (adenosine A2A receptor; determined in vitro): 0.9 µg/mL (≈ 3.03 µM)

— patent US7790698B2, “Use of adenosine receptor agonists in therapy” (Cambridge Biotechnology Ltd, priority 2003, dated 2010)
